Among the data in US20260028348A1, “MODULATORS OF TNF-ALPHA ACTIVITY” (Forward Therapeutics, Inc., priority 2023, published 2026) are IC50 values, retold here.

Structures are written as SMILES.

In this assay the test system is HEK Blue™ TNFα reporter cells. Briefly: TNF-α Induced HEK Blue Cellular Assay. Type of assay: cell-based. Particulars: TNF-α stimulated HEK Blue TNFα reporter cells, 24 hrs, secreted alkaline phosphatase (QUANTI-Blue, 620 nm). The method, then: Test articles were diluted in DMSO and serially diluted into 384 well assay plate (Corning 3765), at final concentrations ranging from […] to 0.5 nM. HEK Blue™ TNFα reporter cells were added at a final density of 10,000 cell per well in assay media [DMEM (Gibco, cat #21063-029), 10% fetal bovine serum (ExcelBio, cat #FND500), 1% Penicillin-Streptomycin (Solarbio, cat #P1400-100]. TNF-α (R&D 210-TA-020/CF) was then added to the assay plate at a final concentration of […]. This plate was then incubated for 24 hrs at 37° C. and 5% CO2. Secreted alkaline phosphatase expression was then measured using QUANTI-Blue™(Invivogen), according to manufacturer instructions and read on an Envision microplate reader at 620 nm.
Inhibition data for test compound over a range of concentration was plotted as percentage inhibition of the test compound (100%=maximum inhibition). IC50 values were determined after correcting for background [(sample read-mean of low control)/(mean of high control-mean of low control)] whereby the low control is DMSO without stimulation and high control is DMSO with stimulation. The IC50 is defined as the concentration of test compound which produces […] and was quantified using the 4 parameter logistic equation to fit the data.
Regarding `CN1C(=O)c2cccc(OC(F)F)c2[C@H]2C[C@@H]1c1nc3ccc(-c4cnc5c(c4)CCC5(C)O)cc3n12` (stereo partly drawn) [Example 1, (1R,11R)-18-(difluoromethoxy)-5-{7-hydroxy-7-methyl-5H,6H-cyclopenta[b]pyridin-3-yl}-12-methyl-2,9,12-triazapentacyclo[9.8.1.0^{2,10}.0^{3,8}.0^{14,19}]icosa-3(8),4,6,9,14(19),15,17-heptaen-13-one], the IC50 was less than 100 nM.
The molecule `CN1C(=O)c2cccc(OC(F)F)c2[C@H]2C[C@@H]1c1nc3ccc(-c4ccc5c(c4)CC[C@@H]5N)cc3n12` [Example 2, (1R,11R)-5-[(1S)-1-amino-2,3-dihydro-1H-inden-5-yl]-18-(difluoromethoxy)-12-methyl-2,9,12-triazapentacyclo[9.8.1.0^{2,10}.0^{3,8}.0^{14,19}]icosa-3(8),4,6,9,14(19),15,17-heptaen-13-one] displayed an IC50 of less than 100 nM.
Molecule `CC1(O)CCc2cc(-c3ccc4nc5n(c4c3)[C@@H]3C[C@H]5NC(=O)c4cccc(OC(F)F)c43)cnc21` (stereo partly drawn) [Example 3, (1R,11R)-18-(difluoromethoxy)-5-{7-hydroxy-7-methyl-5H,6H-cyclopenta[b]pyridin-3-yl}-2,9,12-triazapentacyclo[9.8.1.0^{2,10}.0^{3,8}.0^{14,19}]icosa-3(8),4,6,9,14(19),15,17-heptaen-13-one] had an IC50 of less than 100 nM.
In the case of `N[C@H]1COc2cc(-c3ccc4nc5n(c4c3)[C@@H]3C[C@H]5NC(=O)c4cccc(OC(F)F)c43)ccc21` [Example 4, (1R,11R)-5-[(3R)-3-amino-2,3-dihydro-1-benzofuran-6-yl]-18-(difluoromethoxy)-2,9,12-triazapentacyclo[9.8.1.0^{2,10}.0^{3,8}.0^{14,19}]icosa-3(8),4,6,9,14(19),15,17-heptaen-13-one], the IC50 is less than 100 nM.
With `CN1C(=O)c2cccc(OC(F)F)c2[C@H]2C[C@@H]1c1nc3ccc(-c4ccc5c(c4)OC[C@@H]5N)cc3n12` [Example 5, (1R,11R)-5-[(3R)-3-amino-2,3-dihydro-1-benzofuran-6-yl]-18-(difluoromethoxy)-12-methyl-2,9,12-triazapentacyclo[9.8.1.0^{2,10}.0^{3,8}.0^{14,19}]icosa-3(8),4,6,9,14(19),15,17-heptaen-13-one] the figure was less than 100 nM; with `N[C@H]1CCc2cc(-c3ccc4nc5n(c4c3)[C@@H]3C[C@H]5NC(=O)c4cccc(OC(F)F)c43)ccc21` [Example 6, (1R,11R)-5-[(1S)-1-amino-2,3-dihydro-1H-inden-5-yl]-18-(difluoromethoxy)-2,9,12-triazapentacyclo[9.8.1.0^{2,10}.0^{3,8}.0^{14,19}]icosa-3(8),4,6,9,14(19),15,17-heptaen-13-one], less than 100 nM.
The molecule `CN1C(=O)c2cccc(OC(F)F)c2[C@H]2C[C@@H]1c1nc3ccc(-c4cc(F)c5c(c4)CC[C@@H]5N)cc3n12` [Example 7, (1R,11R)-5-[(1S)-1-amino-7-fluoro-2,3-dihydro-1H-inden-5-yl]-18-(difluoromethoxy)-12-methyl-2,9,12-triazapentacyclo[9.8.1.0^{2,10}.0^{3,8}.0^{14,19}]icosa-3(8),4,6,9,14(19),15,17-heptaen-13-one] displayed a half-maximal inhibitory concentration (IC50) of less than 100 nM.
Consider `CN1C(=O)c2cccc(OC(F)F)c2[C@H]2C[C@@H]1c1nc3ccc(-c4cnc5c(c4)CCC5=O)cc3n12` [Example 8, (1R,11R)-18-(difluoromethoxy)-12-methyl-5-{7-oxo-5H,6H-cyclopenta[b]pyridin-3-yl}-2,9,12-triazapentacyclo[9.8.1.0^{2,10}.0^{3,8}.0^{14,19}]icosa-3(8),4,6,9,14(19),15,17-heptaen-13-one], for which the concentration for half-maximal inhibition (IC50) is less than 100 nM.
Then `CN1C(=O)c2cccc(OC(F)F)c2[C@H]2C[C@@H]1c1nc3ccc(-c4ccc5c(c4)CC[C@H]5N)cc3n12` [Example 9, (1R,11R)-5-[(1R)-1-amino-2,3-dihydro-1H-inden-5-yl]-18-(difluoromethoxy)-12-methyl-2,9,12-triazapentacyclo[9.8.1.0^{2,10}.0^{3,8}.0^{14,19}]icosa-3(8),4,6,9,14(19),15,17-heptaen-13-one], with less than 100 nM; and `CN1C(=O)c2cccc(OC(F)F)c2[C@H]2C[C@@H]1c1nc3ccc(-c4ccc5c(c4)OCC[C@@H]5N)cc3n12` [Example 10, (1R,11R)-5-[(4S)-4-amino-3,4-dihydro-2H-1-benzopyran-7-yl]-18-(difluoromethoxy)-12-methyl-2,9,12-triazapentacyclo[9.8.1.0^{2,10}.0^{3,8}.0^{14,19}]icosa-3(8),4,6,9,14(19),15,17-heptaen-13-one], with less than 100 nM.
As for `N[C@H]1CCc2cc(-c3ccc4nc5n(c4c3)[C@@H]3C[C@H]5NC(=O)c4cccc(OC(F)F)c43)cc(F)c21` [Example 13, (1R,11R)-5-[(1S)-1-amino-7-fluoro-2,3-dihydro-1H-inden-5-yl]-18-(difluoromethoxy)-2,9,12-triazapentacyclo[9.8.1.0^{2,10}.0^{3,8}.0^{14,19}]icosa-3(8),4,6,9,14(19),15,17-heptaen-13-one], the IC50 was less than 100 nM.
Then `N[C@H]1COc2cc(-c3ccc4nc5n(c4c3)[C@@H]3C[C@H]5N(C4CC4)C(=O)c4cccc(OC(F)F)c43)ccc21` [Example 14, (1R,11R)-5-[(3R)-3-amino-2,3-dihydro-1-benzofuran-6-yl]-12-cyclopropyl-18-(difluoromethoxy)-2,9,12-triazapentacyclo[9.8.1.0^{2,10}.0^{3,8}.0^{14,19}]icosa-3(8),4,6,9,14(19),15,17-heptaen-13-one], with less than 100 nM.
With `CN1C(=O)c2cccc(OC(F)F)c2[C@H]2C[C@@H]1c1nc3ccc(-c4ccc5c(c4)CC[C@@H]5O)cc3n12` [Example 15, (1R,11R)-18-(difluoromethoxy)-5-[(1S)-1-hydroxy-2,3-dihydro-1H-inden-5-yl]-12-methyl-2,9,12-triazapentacyclo[9.8.1.0^{2,10}.0^{3,8}.0^{14,19}]icosa-3(8),4,6,9,14(19),15,17-heptaen-13-one] the figure was less than 100 nM; with `CN1C(=O)c2cccc(OC(F)F)c2[C@H]2C[C@@H]1c1nc3ccc(-c4cnc5c(c4)CNC5=O)cc3n12` [Example 18, (1R,11R)-18-(difluoromethoxy)-12-methyl-5-{7-oxo-5H,6H-pyrrolo[3,4-b]pyridin-3-yl}-2,9,12-triazapentacyclo[9.8.1.0^{2,10}.0^{3,8}.0^{14,19}]icosa-3(8),4,6,9,14(19),15,17-heptaen-13-one], 100 to 1000 nM; with `CN1C(=O)c2cccc(OC(F)F)c2[C@H]2C[C@@H]1c1nc3ccc(-c4cnc5c(c4)OCC[C@@H]5N)cc3n12` [Example 19, (1R,11R)-5-[(4S)-4-amino-2H,3H,4H-pyrano[3,2-b]pyridin-7-yl]-18-(difluoromethoxy)-12-methyl-2,9,12-triazapentacyclo[9.8.1.0^{2,10}.0^{3,8}.0^{14,19}]icosa-3(8),4,6,9,14(19),15,17-heptaen-13-one], less than 100 nM.
Regarding `CN1Cc2cc(-c3ccc4nc5n(c4c3)[C@@H]3C[C@H]5N(C)C(=O)c4cccc(OC(F)F)c43)cnc2C1=O` [Example 20, (1R,11R)-18-(difluoromethoxy)-12-methyl-5-{6-methyl-7-oxo-5H-pyrrolo[3,4-b]pyridin-3-yl}-2,9,12-triazapentacyclo[9.8.1.0^{2,10}.0^{3,8}.0^{14,19}]icosa-3(8),4,6,9,14(19),15,17-heptaen-13-one], the IC50 was less than 100 nM.
